Reference: patent publication US8158811B2, “Unsaturated fatty hydroxy acid derivatives and the dermocosmetologic use thereof” (Pierre Fabre Dermo-Cosmetique, priority 2005, dated 2012)

Columns and labels:
prostaglandin 6KF1α = experiment: production of prostaglandin 6KF1α by keratinocytes stimulated with calcium ionophore A23187 (ELISA); assay type: cell-based; settings: 3 μg/ml, A23187 1 μm 5 hours
Description: A suspension of keratinocytes in DMEM 10% foetal calf serum was divided into 6 well plates (1.2. 106cells/wells) and incubated for 16 hours at 37° C. in a 5% CO2 atmosphere. The keratinocytes were then rinsed with PBS in order to eliminate non adhering cells then exposed to the products to be tested included in DMEM without foetal calf serum (which could interfere with the assay).
The concentration tested in culture was 3 μg/ml. This was retained as the test concentration after a preliminary evaluation test for cytotoxicity (neutral red) and is not cytotoxic.
For each treatment, three wells were tested. Cells were pre-incubated for 60 minutes with the products to be tested then a stimulating agent was added to stimulate the arachidonic acid cascade (calcium ionophore) which was added for 5 hours: calcium ionophore A23187 was used at a concentration of 1 μm.
After 5 hours in culture, the culture medium for each well was recovered, centrifuged at 3000 rpm and stored at −80° C.
The production of prostaglandin 6KF1α for each of the tests was measured using a EUROMEDEX Elisa Kit.
Results are expressed as the percentage activity/stimulated control.

[1] = test system: membrane lipids, fibroblast line L929; experiment: TBARS test, lipid peroxidation after H2O2/Fe2+/Fe3+; assay type: cell-based, murin; settings: 0.02 ng/ml, pretreated 16 hours
Text: In order to evaluate membrane changes, we measured lipid peroxidation by in vitro assay of complexes between the products of lipid oxidation and thiobarbituric acid. These complexes are called TBARS (thiobarbituric acid reactive substances) and give the test its name: TBARS Test.
In order to mimic chemical oxidative stress, we treated a fibroblast line (L929) with a complex consisting of hydrogen peroxide (H2O2) and iron (Fe^2+/Fe^3+) thus reconstituting the Fenton reaction which is the source of oxygenated free radicals and particularly the hydroxyl radical (OH°) (D. A Vessey et al. 1992): H2O2+Fe^2+→OH°+OH^−+Fe^3+
The products were evaluated on a murin fibroblast line L929. Cells were pretreated with different concentrations of the product for 16 hours and were then stimulated with the H2O2/Fe^2+/Fe^3+ complex (200 μM−1 mM) for 1 hour. • Stock solutions: 100 mg/ml ethanol, 4° C. • Final solutions: 0.02 ng/ml.
Peroxidation of membrane lipids was analysed by measuring TBARS (Protocol ref. PLN°2, according to Morliere et al, 1991).
[…]. TBARS assays are therefore expressed in pmole/μg of protein. Proteins and TBARS are assayed in the intracellular medium.
Using the TBARS calculation in pmole/μg protein, we calculated the protective efficacy of various products against the oxidation of lipid membranes.
Four separate experiments were carried out. Several compounds were evaluated in the course of these experiments (the test only allows 10 molecules to be evaluated at one time). The compounds were evaluated several times and were chosen as a function of the results obtained in another test which also measured anti-radical activity (assay test for activated oxygen species).
The model used in this experiment (Fenton reaction) triggers considerable lipid peroxidation of the L929 fibroblasts. This massive release of the hydroxyl radical OH° thus generates oxidative stress in the cells, particularly in the membranes. However, in this type of oxidative reaction, the products resulting from lipid peroxidation are internalized in the cells and TBARS are therefore assayed in the intracellular medium.

transglutaminase 1 (TG1) = experiment: keratinocyte differentiation, real-time RT-PCR of transglutaminase 1 transcripts; assay type: cell-based, human; settings: NHK, 48 hours
Description: (§1) Normal human keratinocytes (NHK) proliferate and differentiate in vitro, forming stratified layers which mimic the basal organisation of the skin. Extracellular calcium concentrations in excess of 0.1 mM initiate a cascade of genome and non-genome events which take the keratinocytes from a proliferative phase towards a differentiation phase. Keratinocyte differentiation can then be evaluated by studying the expression of several markers such as keratins 1 and 10, transglutaminase 1, desaturase DES2, involucrine, FATP4 and ABCG1 transporters. We therefore evaluated the effect of certain hydroxyalcene carboxylic acids in an in vitro culture model.
(§2) Normal human keratinocytes are isolated from skin explants. They are cultured in KSFM medium (Gibco) with a low calcium content (0.1 mM) containing 25 μg/ml of BPE (bovine pituitary extract) and […] of EGF (epithelium growth factor). 24 hours after culturing, differentiation is triggered by the addition of calcium (final concentration 1.2 mM). The active ingredients are added or not at the same time as calcium at concentrations of 100 and 1 μg/ml in order to determine whether or not they have a potentialising effect on differentiation. Cells were then analysed 48 hours after the addition of calcium and these products.
(§3) Total RNA was extracted under cold conditions from keratinocytes.
(§4) After reverse transcription of mRNA into cDNA, PCRs were made up in 96 well plates (iCycler quantitative PCR apparatus, BioRad). Expression of transcripts of transglutaminase, desaturase (DES2), ABCG1 and FATP4 were standardized with respect to the expression of reference genes (GAPDH, UBC, HPRT).

ABCG1 = experiment: keratinocyte differentiation, real-time RT-PCR of ABCG1 transcripts; assay type: cell-based, human; settings: NHK, 48 hours
Description: as §1, §2, §3, §4

PAR-2 receptors = molecular target: T1, PAR-2 receptors (Homo sapiens, UniProt P55085); experiment: calcium flux induced by trypsin stimulation of PAR-2 receptors in HaCaT keratinocytes (Fluo-4/AM); assay type: cell-based; settings: trypsin 10 nM
T1 construct: PAR-2 receptors for trypsin present in human keratinocytes from the HaCaT line; endogenous in cells; host or cells: HaCaT human keratinocytes
T1 sequence (P55085 26-397): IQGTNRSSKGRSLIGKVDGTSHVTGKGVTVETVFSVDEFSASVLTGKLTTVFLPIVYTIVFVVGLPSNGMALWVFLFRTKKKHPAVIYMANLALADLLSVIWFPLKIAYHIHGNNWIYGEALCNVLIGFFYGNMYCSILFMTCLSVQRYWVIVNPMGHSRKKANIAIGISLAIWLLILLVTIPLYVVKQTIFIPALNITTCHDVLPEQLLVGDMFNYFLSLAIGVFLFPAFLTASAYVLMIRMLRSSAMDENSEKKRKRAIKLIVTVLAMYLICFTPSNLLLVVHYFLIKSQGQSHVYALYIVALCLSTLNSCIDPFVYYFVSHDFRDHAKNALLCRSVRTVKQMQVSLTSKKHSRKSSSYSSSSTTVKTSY
Text: We therefore considered evaluating anti-PAR-2 activity of hydroxyl acid derivatives of formula I on the influx of intracellular calcium induced after specific stimulation by PAR-2 receptors for trypsin present in human keratinocytes from the HaCaT line.
This technique is based on the use of an esterified fluorescent probe by an AM group which facilitates its penetration by passive diffusion into the cell. The probe used is Fluo-4/AM. Only the de-esterified form bound to the calcium ion is excitable in fluorescence (at 485 nm) and emits at 535 nm.
In vitro, at the cell level, specific stimulation of the PAR-2 receptors by trypsin leads to mobilisation of intra and extracellular calcium detected with the aid of the fluorescent probe.

Interleukin 8 = experiment: release of Interleukin 8 by keratinocytes NHK stimulated with PMA + calcium ionophore A23187 (ELISA); assay type: cell-based, human; settings: IL8 release

Structure (SMILES) | Induction Factor vs Control (CaCl2 1.2 mM) TG1 (transglutaminase 1 (TG1); 1 μg/ml) | Induction Factor vs Control (CaCl2 1.2 mM) TG1 (transglutaminase 1 (TG1); 100 μg/ml) | % inhibiting activity of evaluated molecules on the production of PG6KF1α Inflammation (prostaglandin 6KF1α) | % membrane lipid protection, Mean [1] [%] | Induction Factor vs Control (CaCl2 1.2 mM) ABCG1 (ABCG1; 1 μg/ml) | Induction Factor vs Control (CaCl2 1.2 mM) ABCG1 (ABCG1; 100 μg/ml) | further results
O=C(O)C(F)=CCCCCCO (mixture of isomers) [n=4, R=H, Rn=H, R1=F] | 1.6 | 1.7 | 30% | 36.54 | 2.6 | 2.6 | –
O=C(O)C(F)=CCCCCCCCCCCCCCCO [n=13, R=H, Rn=H, R1=F, 17-hydroxy-heptadec-2-fluoro-2-enoic acid] | 4.2 | – | 14% | 7.39 | 4.8 | – | % inhibition (PAR-2 receptors; 0.1 μg/ml): −1%; % stimulation (PAR-2 receptors; 0.1 μg/ml): 13.78%; % inhibition (PAR-2 receptors; 0.3 μg/ml): 6%; % stimulation (PAR-2 receptors; 0.3 μg/ml): 13.06%; % inhibition (PAR-2 receptors; 1 μg/ml): 9%; % stimulation (PAR-2 receptors; 1 μg/ml): 12.74%; % inhibition (PAR-2 receptors; 3 μg/ml): 7%; % stimulation (PAR-2 receptors; 3 μg/ml): 12.97%; % inhibition (PAR-2 receptors; 10 μg/ml): 42%; % stimulation (PAR-2 receptors; 10 μg/ml): 9.55%; ED50 (Interleukin 8): <3 µg/mL
O=C(O)/C=C/CCCCCCCCCCCCCCO [n=13, R=H, Rn=H, R1=H, 17-hydroxy-heptadec-2t-enoic acid] | 1.4 | – | 25% | 22.10 | 3.0 | – | ED50 (Interleukin 8): <3 µg/mL
O=C(O)C(F)=CCCCCCCCCCCCO [n=10, R=H, Rn=H, R1=F, 14-hydroxy-tetradec-2-fluoro-2-enoic acid] | 1.4 | 3.5 | 18% | 13.13 | 1.4 | 4.6 | –

Now from value to compound, other results behind:

Induction Factor vs Control (CaCl2 1.2 mM) TG1 (transglutaminase 1 (TG1); 1 μg/ml) | Induction Factor vs Control (CaCl2 1.2 mM) TG1 (transglutaminase 1 (TG1); 100 μg/ml) | Structure (SMILES) | % inhibiting activity of evaluated molecules on the production of PG6KF1α Inflammation (prostaglandin 6KF1α) | % membrane lipid protection, Mean [1] [%] | Induction Factor vs Control (CaCl2 1.2 mM) ABCG1 (ABCG1; 1 μg/ml) | Induction Factor vs Control (CaCl2 1.2 mM) ABCG1 (ABCG1; 100 μg/ml) | further results
1.2 | 2.6 | O=C(O)C=CCCCCO [n=3, R=H, Rn=H, R1=H] | 29% | 15.7 | 1.5 | 4.0 | –
1.5 | 31.4 | O=C(O)/C=C/CCCCCCCCCCCO [n=10, R=H, Rn=H, R1=H, 14-hydroxy-tetradec-2t-enoic acid] | Non active | 27.18 | 1.4 | 25.5 | % inhibition (PAR-2 receptors; 10 μg/ml): −17%; % stimulation (PAR-2 receptors; 10 μg/ml): 15.33%; % inhibition (PAR-2 receptors; 30 μg/ml): −4%; % stimulation (PAR-2 receptors; 30 μg/ml): 14.10%; % inhibition (PAR-2 receptors; 100 μg/ml): 39%; % stimulation (PAR-2 receptors; 100 μg/ml): 9.84%
1.2 | 1.7 | O=C(O)C=CCCCCCO [n=4, R=H, Rn=H, R1=H] | – | 37.88 | 1.2 | 2.5 | –
1.4 | 14.8 | O=C(O)/C=C/CCCCCCCCCCO [n=9, R=H, Rn=H, R1=H, 13-hydroxy-tridec-2t-enoic acid] | 31% | 8.72 | 1.5 | 13.8 | –
